The source of these data is ChEMBL document CHEMBL1926602, “Anisotropy studies of tRNA-T box antiterminator RNA complex in the presence of 1,4-disubstituted 1,2,3-triazoles” (Bioorg Med Chem Lett, 2011).

One assay deals with Nucleic Acid. The assay is described as follows: Inhibition of A73U tRNA(Tyr)-5'Rhd-AM1A T box antiterminator RNA complex assessed as reduction in anisotrophy changes by at 100 uM by fluorescence anisotropy-based assay relative to untreated control. In kind it is nucleic-acid assay. On the technique in general: In fluorescence polarisation assays a small probe gives low polarisation when free and higher when bound to something large.
For the molecule `CN(Cc1cn(C2CCCCC2OC(=O)Cc2ccccc2)nn1)CC1CCCCC1` (stereo not given), the inhibition (commonly the percentage by which the read-out fell short of the control) came to 5%.
The same measure, in the same setting: the result for `CCOC(=O)C1CCCN(Cc2cn(C3CCCCC3OC(=O)COc3ccccc3)nn2)C1` (stereo not given) reads 21%; that for `CN(Cc1cn(C2CCCCC2OC(=O)COc2ccccc2)nn1)CC1CCCCC1` (stereo not given), 37%; that for `CN(CCCc1ccccc1)Cc1cn(C2CCCCC2OC(=O)COc2ccccc2)nn1` (stereo not given), 42%.
The same measure, in the same setting: to `CC(C)CCN(C)Cc1cn(CC(O)COC(=O)NCc2ccccc2)nn1` (stereo not given) belongs 26%.
The same measure, in the same setting: the result for `CN(Cc1cn(CC(O)COC(=O)NCc2ccccc2)nn1)CC1CCCCC1` (stereo not given) reads 32%.
As to `CCCCC(O)Cn1cc(CN(C)CC2CCCCC2)nn1` (stereo not given), the inhibition amounted to 47%.
For `OC1CCCCC1n1cc(CN2CCN(c3ccccc3)CC2)nn1` (stereo not given), the inhibition worked out at 47%.
The same measure, in the same setting: the result for `CCCCCCCC(=O)OCC(O)Cn1cc(CN2CCN(c3ccccc3)CC2)nn1` (stereo not given) reads 26%; that for `CN(CCCc1ccccc1)Cc1cn(CC(O)COC(=O)c2ccccc2)nn1` (stereo not given), 12%.
Still for that read-out and setting: to `CN(CCc1ccccc1)Cc1cn(CC(O)COC(=O)c2ccccc2)nn1` (stereo not given) belongs 0%.
On the same count and under the same terms, the result for `CCCCN(CCCC)Cc1cn(C2CCCCC2O)nn1` (stereo not given) reads 32%.
On to `CCCCNC(=O)OCC(O)Cn1cc(CN2CCCC(C(=O)OCC)C2)nn1` (stereo not given), for which the inhibition turned out to be 24%.
`CCCCC(O)Cn1cc(CN2CCOCC2)nn1` (stereo not given): the inhibition is 0%.
In the case of `CCCCCCCC(=O)OCC(O)Cn1cc(CN(C)CCCc2ccccc2)nn1` (stereo not given), the inhibition turned out to be 12%.
Still for that read-out and setting: the result for `CC(C)CCN(C)Cc1cn(CC(O)c2ccccc2)nn1` (stereo not given) reads 58%.
On the same count and under the same terms, to `CCCCNC(=O)OCC(O)Cn1cc(CN2CCOCC2)nn1` (stereo not given) belongs 5%; to `CCCCC(O)Cn1cc(CN(CCCC)CCCC)nn1` (stereo not given), 18%; to `O=C(COc1ccccc1)OC1CCCCC1n1cc(CN2CCOCC2)nn1` (stereo not given), 5%.
The same measure, in the same setting: to `CC(C)CCN(C)Cc1cn(C2CCCCC2OC(=O)c2ccccc2)nn1` (stereo not given) belongs 26%; to `CN(CCc1ccccc1)Cc1cn(CC(O)COCc2ccccc2)nn1` (stereo not given), 18%; to `CCCCN(CCCC)Cc1cn(CC(O)COC(=O)c2ccccc2)nn1` (stereo not given), 12%.
Regarding `O=C(NCc1ccccc1)OCC(O)Cn1cc(CN2CCN(c3ccccc3)CC2)nn1` (stereo not given), the inhibition stood at 32%.
In the case of `CN(Cc1cn(C2CCCCC2O)nn1)CC1CCCCC1` (stereo not given), the inhibition was determined as 47%.
Same read-out and setting: to `CCCCNC(=O)OCC(O)Cn1cc(CN2CCN(c3ccccc3)CC2)nn1` (stereo not given) belongs 11%.
On the same count and under the same terms, to `CN(CCCc1ccccc1)Cc1cn(CC(O)COC(=O)NCc2ccccc2)nn1` (stereo not given) belongs 79%; to `CCCCN(CCCC)Cc1cn(CC(O)COCc2ccccc2)nn1` (stereo not given), 6%.
Still for that read-out and setting: to `CN(Cc1cn(CC(O)COC(=O)C2CCCCC2)nn1)CC1CCCCC1` (stereo not given) belongs 18%.
Take `CCOC(=O)C1CCCN(Cc2cn(C3CCCCC3OC(=O)Cc3ccccc3)nn2)C1` (stereo not given): the inhibition was found to be 21%.
Still for that read-out and setting: to `CCOC(=O)C1CCCN(Cc2cn(C3CCCCC3O)nn2)C1` (stereo not given) belongs 16%; to `CCCCN(CCCC)Cc1cn(C2CCCCC2OC(=O)COc2ccccc2)nn1` (stereo not given), 26%.
On the same count and under the same terms, to `CCCCC(O)Cn1cc(CN2CCN(c3ccccc3)CC2)nn1` (stereo not given) belongs 47%; to `CC(C)CCN(C)Cc1cn(CC(O)COC(=O)c2ccccc2)nn1` (stereo not given), 0%; to `CN(Cc1cn(CC(O)COC(=O)c2ccccc2)nn1)CC1CCCCC1` (stereo not given), 6%.
The same measure, in the same setting: the result for `CN(CCc1ccccc1)Cc1cn(C2CCCCC2O)nn1` (stereo not given) reads 21%; that for `CC(C)CCN(C)Cc1cn(CC(O)COC(=O)C2CCCCC2)nn1` (stereo not given), 0%.
For the molecule `CCCCC(O)Cn1cc(CN2CCCC(C(=O)OCC)C2)nn1` (stereo not given), the inhibition turned out to be 53%.
For the molecule `CCOC(=O)C1CCCN(Cc2cn(CC(O)COC(=O)c3ccccc3)nn2)C1` (stereo not given), the inhibition was found to be 6%.
Same read-out and setting: the result for `OC1CCCCC1n1cc(CN2CCC(c3ccccc3)CC2)nn1` (stereo not given) reads 42%.
Still for that read-out and setting: to `CN(Cc1ccccc1)Cc1cn(CC(O)c2ccccc2)nn1` (stereo not given) belongs 32%; to `CCCCC(O)Cn1cc(CN2CCC(c3ccccc3)CC2)nn1` (stereo not given), 16%.
Same read-out and setting: the result for `O=C(OCC(O)Cn1cc(CN2CCOCC2)nn1)c1ccccc1` (stereo not given) reads 5%.
Take `CCCCC(O)Cn1cc(CN(C)CCCc2ccccc2)nn1` (stereo not given): the inhibition came out at 37%.
On to `CCCCCCCC(=O)OCC(O)Cn1cc(CN2CCOCC2)nn1` (stereo not given), for which the inhibition is 0%.
On the same count and under the same terms, the result for `CCOC(=O)C1CCCN(Cc2cn(C3CCCCC3OC(=O)c3ccccc3)nn2)C1` (stereo not given) reads 11%.
The same measure, in the same setting: the result for `O=C(COc1ccccc1)OC1CCCCC1n1cc(CN2CCN(c3ccccc3)CC2)nn1` (stereo not given) reads 37%; that for `CCCCNC(=O)OCC(O)Cn1cc(CN(C)CCC(C)C)nn1` (stereo not given), 24%.
On the same count and under the same terms, the result for `CCCCN(CCCC)Cc1cn(C2CCCCC2OC(=O)Cc2ccccc2)nn1` (stereo not given) reads 53%.
Consider `O=C(OC1CCCCC1n1cc(CN2CCN(c3ccccc3)CC2)nn1)c1ccccc1` (stereo not given), for which the inhibition came to 21%.
On the same count and under the same terms, the result for `CCOC(=O)C1CCCN(Cc2cn(CC(O)COCc3ccccc3)nn2)C1` (stereo not given) reads 26%; that for `CCCCN(CCCC)Cc1cn(CC(O)COC(=O)NCc2ccccc2)nn1` (stereo not given), 42%; that for `CC(C)CCN(C)Cc1cn(C2CCCCC2OC(=O)COc2ccccc2)nn1` (stereo not given), 59%.
Same read-out and setting: the result for `CN(Cc1cn(CC(O)COCc2ccccc2)nn1)CC1CCCCC1` (stereo not given) reads 6%.
On the same count and under the same terms, to `CCCCN(CCCC)Cc1cn(CC(O)COC(=O)C2CCCCC2)nn1` (stereo not given) belongs 12%.
Regarding `CCCCC(O)Cn1cc(CN(C)CCc2ccccc2)nn1` (stereo not given), the inhibition came out at 29%.
Still for that read-out and setting: to `CCCCNC(=O)OCC(O)Cn1cc(CN(C)CC2CCCCC2)nn1` (stereo not given) belongs 12%.
Same read-out and setting: to `OC(Cn1cc(CN2CCN(c3ccccc3)CC2)nn1)c1ccccc1` (stereo not given) belongs 32%; to `CN(CCc1ccccc1)Cc1cn(C2CCCCC2OC(=O)COc2ccccc2)nn1` (stereo not given), 32%; to `CCCCC(O)Cn1cc(CN(C)CCC(C)C)nn1` (stereo not given), 47%.
Same read-out and setting: the result for `O=C(NCc1ccccc1)OCC(O)Cn1cc(CN2CCC(c3ccccc3)CC2)nn1` (stereo not given) reads 29%.
On to `O=C(OC1CCCCC1n1cc(CN2CCC(c3ccccc3)CC2)nn1)c1ccccc1` (stereo not given), for which the inhibition worked out at 16%.
Same read-out and setting: the result for `CCCCCCCC(=O)OCC(O)Cn1cc(CN(CCCC)CCCC)nn1` (stereo not given) reads 71%; that for `CN(CCc1ccccc1)Cc1cn(CC(O)COC(=O)NCc2ccccc2)nn1` (stereo not given), 42%.
Still for that read-out and setting: the result for `O=C(OCC(O)Cn1cc(CN2CCN(c3ccccc3)CC2)nn1)c1ccccc1` (stereo not given) reads 11%; that for `O=C(OCC(O)Cn1cc(CN2CCOCC2)nn1)C1CCCCC1` (stereo not given), 11%; that for `CN(Cc1cn(C2CCCCC2OC(=O)c2ccccc2)nn1)CC1CCCCC1` (stereo not given), 32%.
The same measure, in the same setting: the result for `OC(COCc1ccccc1)Cn1cc(CN2CCN(c3ccccc3)CC2)nn1` (stereo not given) reads 37%.
Consider `CC(C)CCN(C)Cc1cn(C2CCCCC2O)nn1` (stereo not given), for which the inhibition is 42%.
Still for that read-out and setting: the result for `CCOC(=O)C1CCCN(Cc2cn(CC(O)COC(=O)NCc3ccccc3)nn2)C1` (stereo not given) reads 47%; that for `O=C(COc1ccccc1)OC1CCCCC1n1cc(CN2CCC(c3ccccc3)CC2)nn1` (stereo not given), 42%; that for `CN(CCCc1ccccc1)Cc1cn(CC(O)COCc2ccccc2)nn1` (stereo not given), 18%.

For the next assay, the system named is Nucleic Acid. The assay is described as follows: Stabilization of A73U tRNA(Tyr)-5'Rhd-AM1A T box antiterminator RNA complex assessed as increase in anisotrophy changes by at 100 uM by fluorescence anisotropy-based assay relative to untreated control. Type of assay: nucleic-acid assay.
`CCOC(=O)C1CCCN(Cc2cn(CC(O)COC(=O)C3CCCCC3)nn2)C1` (stereo not given): the Activity worked out at 6%.
The same measure, in the same setting: the result for `CCOC(=O)C1CCCN(Cc2cn(CC(O)c3ccccc3)nn2)C1` (stereo not given) reads 6%.
The same measure, in the same setting: to `O=C(OC1CCCCC1n1cc(CN2CCOCC2)nn1)c1ccccc1` (stereo not given) belongs 6%; to `OC(Cn1cc(CN2CCOCC2)nn1)c1ccccc1` (stereo not given), 6%.
The same measure, in the same setting: to `CCCCNC(=O)OCC(O)Cn1cc(CN(CCCC)CCCC)nn1` (stereo not given) belongs 18%.
In the case of `OC1CCCCC1n1cc(CN2CCOCC2)nn1` (stereo not given), the Activity turned out to be 24%.
On the same count and under the same terms, the result for `OC(COCc1ccccc1)Cn1cc(CN2CCOCC2)nn1` (stereo not given) reads 12%.
Still for that read-out and setting: to `CN(Cc1cn(CC(O)c2ccccc2)nn1)CC1CCCCC1` (stereo not given) belongs 6%.
Still for that read-out and setting: the result for `O=C(Cc1ccccc1)OC1CCCCC1n1cc(CN2CCOCC2)nn1` (stereo not given) reads 6%.
